We go through 14 compounds from EP4778931A1, “ULK1 INHIBITOR, PREPARATION METHOD THEREFOR AND USE THEREOF” (Dovetree Medicines Unus, Inc., priority 2023, dated 2025).

A value given as a limit tells only on which side of the number the result lay.

As a reminder, the IC50 is the concentration that gives 50% inhibition.

In this assay the test system is ATG13 phosphorylation level in MIA PaCa-2 cells. In words: Inhibition of ATG13 phosphorylation level in MIA PaCa-2 cells (Phospho-Atg13 (ser355) ELISA). It counts as cell-based. As to conditions: Homo sapiens, Torin1 100 nM, 24 h incubation, 8 concentrations, highest 10 µM, read-out: pATG13 ELISA IC50. The procedure: The inhibitory effect of the compound of the present disclosure on ULK1 was evaluated by testing the inhibitory effect of the compound of the present disclosure on ATG13 phosphorylation level in MIA PaCa-2 cells.
MIA PaCa-2 cells (ATCC, CRM-CRL-1420) were cultured in a complete medium, namely, a DMEM medium (Gibco, 11965-092) containing 10% fetal bovine serum (Corning, 35-081-CV), 2.5% horse serum (Gibco, 16050-122) and 1% double antibody (Gibco, 15140-122). The experiments were performed according to the requirements of the kit (Cell Signaling Technology, 17208C).
Cell plating: MIA PaCa-2 at 80% growth confluence were digested, diluted with the complete medium, and added to a 96-well cell culture plate (Costar, 3596) at 20,000 cells per well, with a volume of 90 µL.
Compound incubation: 5 µL of Torin1 and 5 µL of a serially diluted compound were added to each well so that the highest concentration of the compound in the reaction system was 10 µM. 5-fold serial dilution with 8 concentrations was performed, and the final concentration of Torin1 was 100 nM. The DMSO content in the system was 0.1%. The reaction plate was placed in an incubator at 37°C in 5% CO2, and was incubated for 24 h. 10 µL of Torin1 was added to the negative control wells (NC) to a final concentration of 100 nM, with a DMSO content of 0.1%.
Reaction detection: After the incubation was completed, the cell plate was washed with a pre-cooled DPBS (Corning, 21-031-CVC) to wash away the compound and medium. 50 µL of pre-cooled cell lysis solution was added to each well, incubated on ice for 10 min. The cell plate was centrifuged, and the supernatant was transfered to an ELISA reaction plate. Simultaneously, 50 µL of Phospho-Atg13 (ser355) rabbit detection antibody was added, followed by incubation at room temperature under shaking for 60 min. After the incubation was completed, the reaction plate was washed with a washing solution for 4 times. 100 µL of TMB substrate was added for color development reaction, followed by incubation under shaded conditions with shaking for 15 min. Finally, 100 µL of stop solution was added to each well. The reaction was terminated by shaking for 10 s, and the absorbance value at 450 nm and 560 nm were collected within 10 min using Envision (Perkin Elmer, EnVision 2105).
The inhibition ratio was calculated by subtracting the absorbance value at […] from the absorbance value at 450 nm for each well. The inhibition ratio formula is as follows: [formula]
The dose-effect curve was fitted using the log (inhibitor) vs. response -Variable slope of Graphpad Prism8, thereby affording the IC50 value of each compound for inhibiting ATG13 phosphorylation level.
In general terms: ELISA stands for enzyme-linked immunosorbent assay.
Turning to `CN1CCN2c3ccc(Nc4ncc(C(F)(F)F)c(NCCCN5CCCCC5=O)n4)cc3COCC2C1` (centres unmarked) [Compound 11], the IC50 was under 100 nM.

With `CN1CCN2c3ccc(Nc4ncc(C(F)(F)F)c(N5CCC(n6cccn6)CC5)n4)cc3COCC2C1` (centres unmarked) [Compound 4], the IC50 was over 1000 nM.

As for `CN1CCN2c3ccc(Nc4ncc(C(F)(F)F)c(N5CC6(CCN(C)C6)C5)n4)cc3COCC2C1` (centres unmarked) [Compound 20], the IC50 was 100 to 1000 nM.

For the compound `CN1CCN2c3ccc(Nc4ncc(C(F)(F)F)c(NC5CCN(C(=O)C6CCC6)CC5)n4)cc3COCC2C1` (centres unmarked) [Compound 21], the 50% inhibitory concentration (IC50) is over 1000 nM.

In the case of `CN1CCN2c3ccc(Nc4ncc(C(F)(F)F)c(OCCCN5CCCCC5=O)n4)cc3OCC2C1` (centres unmarked) [Compound 12], the 50% inhibitory concentration (IC50) fell in the range of 100 to 1000 nM.

Consider `CN1CCN2c3ccc(Nc4ncc(C(F)(F)F)c(N5CCC6(CCN(C)C6)CC5)n4)cc3COCC2C1` (centres unmarked) [Compound 2], for which the IC50 was over 1000 nM.

Turning to `CN1CCN2c3ccc(Nc4ncc(C(F)(F)F)c(N5CCN(C)C(=O)C5)n4)cc3COCC2C1` (centres unmarked) [Compound 1], the IC50 is over 1000 nM.

Turning to `CN1CCN2c3ccc(Nc4ncc(C(F)(F)F)c(N[C@H]5CC[C@@H](n6cccn6)CC5)n4)cc3COCC2C1` (some centres unmarked) [Compound 6], the IC50 lay within 100 to 1000 nM.

As for `CN1CCN2c3ccc(Nc4ncc(C(F)(F)F)c(N5CC6(CN(C)C6)C5)n4)cc3COCC2C1` (centres unmarked) [Compound 22], the half-inhibitory concentration (IC50) lay within 100 to 1000 nM.

`CN1CCN2c3ccc(Nc4ncc(C(F)(F)F)c(OCCCc5ccccc5C#N)n4)cc3COCC2C1` (centres unmarked) [Compound 9]: the 50% inhibitory concentration (IC50) fell in the range of 100 to 1000 nM.

As to `CN1CCN2c3ccc(Nc4ncc(C(F)(F)F)c(NCCCn5cccn5)n4)cc3COCC2C1` (centres unmarked) [Compound 8], the IC50 is over 1000 nM.

Turning to `CN1CCN2c3ccc(Nc4ncc(C(F)(F)F)c(OCCCn5cccn5)n4)cc3COCC2C1` (centres unmarked) [Compound 23], the concentration for half-maximal inhibition (IC50) is over 1000 nM.

As to `CN1CCN2c3ccc(Nc4ncc(C(F)(F)F)c(OCCCN5CCCCC5=O)n4)cc3COCC2C1` (centres unmarked) [Compound 3], the 50% inhibitory concentration (IC50) lay within 100 to 1000 nM.

Turning to `CN1CCN2c3ccc(Nc4ncc(C(F)(F)F)c(N5CCC6(CCN(C)C6)C5)n4)cc3COCC2C1` (centres unmarked) [Compound 5], the IC50 lay in the range of 100 to 1000 nM.
